Measurements: US4835185A, “Immunomodulator for improving commercial performance of domestic animals” (Iowa State University Research Foundation, Inc., priority 1987, dated 1989)

Experiments:
[1] = Water solubility of KIC salts; format: physicochemical; details: vs ammonium and alkali metal salts
[2] = Feeding of calcium versus sodium KIC to ruminants; format: in vivo, ruminants such as cattle and sheep
[3] = design: species or system pigs; details: pig, in vivo
Description: (§1) In experiment 1, sixteen female pigs weighing 20-30 kg were used. Seven days before study, catheters were surgically placed in the right atria for blood sampling. Animals were housed in individual cages during the recovery period and had free access to water. Preceding the experiment, animals were fed twice daily a basal diet (2% of body weight per feeding). The basal diet consisted of a corn-soybean mix, adequate in all minerals and vitamins and containing approximately 14% crude protein. Test meals were formulated by additions to a basal diet. Five animals received the basal diet (control); five animals received the leucine meal, which had 2% leucine added to the basal diet; and six animals received the KIC diet, which had 2% KIC (sodium salt equivalent to 1.7% free acid) added to the basel diet. Studies were begun between 0800 and 0900 h after a 24-hr fast. Basal blood samples were taken at -20, -10 and -5 min. Animals were then offered 100 g of their respective test meal (time 0). Pigs were included in the study only if they consumed the entire meal in the first 20 min. Blood was sampled every 30 min from 120 to 240 min. Plasma was separated, Trasylol (FBA Pharmaceuticals, New York, NY) added (50 ul/ml), and plasma stored at -70 C. until analyzed.
(§2) Cortisol was measured by coated tube kits (Gammacoat, Travenol-Genetech Diagnostics, Cambridge, MA). Leucine and KIC were measured by high pressure liquid chromatography. Crystalline leucine was obtained from Sigma Chemical (St. Louis, MO) and KIC-sodium was obtained from SOBAC (Paris, France). Statistical analysis of the individual pig responses was conducted on mean plasma concentrations before the meal (-20 to 0 min) and after the meal (120 to 240 min). When the overall treatment F-value was significant, differences between individual treatments were determined using the pooled SEM and a T-test.

plasma cortisol = assay: Plasma cortisol in pigs after test meals; format: in vivo
Description: To determine if KIC could acutely alter cortisol concentrations, young pigs were fed meals supplemented with leucine or KIC and plasma cortisol was measured.
as §1, with “Blood was sampled every 30 min from 120 to 240 min.” left out
as §2

Compound | water solubility [1] | effectiveness relative to sodium salt [2] | Plasma KIC, Change [3] [µM] | Plasma leucine, Change [3] [µM] | increase of plasma leucine concentration [3] [fold] | Plasma KIC, Post ([3]; 240 min) [µM] | Plasma leucine, Post ([3]; 240 min) [µM] | Plasma cortisol, Change (plasma cortisol; 2% in meal, control -0.09) [µg/dL] | Plasma cortisol, Post (plasma cortisol; 2% in meal, pre: leucine 2.8, KIC 4.7, pooled SEM 0.49) [µg/dL] | change in plasma cortisol (plasma cortisol; 2% leucine in meal, nonsignificant) [%]
CC(C)CC(=O)C(=O)O [Ca-KIC] | less water-soluble | generally comparably effective with the sodium salt | – | – | – | – | – | – | – | –
CC(C)C[C@H](N)C(=O)O [leucine, reference compound] | – | – | 66 | 518 | 4 | 90 | 664 | -0.48 | 2.4 | -14
